Patent publication US20260374782A1, “NEW COMPOUNDS, PROCESSES FOR PREPARING THE SAME AND THEIR USE AS DRUGS” (B&A ONCOMEDICAL, priority 2022, published 2026)
Values joined by “and” are separate entries in the source; they are usually repeats but may differ in a detail not shown here. Equal entries are not always repeated.

Key:
[1] = system: CA3 pyramidal neurons in hippocampus; assay: Giant depolarizing potentials (GDPs) current density in CA3 pyramidal neurons, hippocampal slices, whole-cell recordings; format: cell-based, mice; conditions: for GDPs current density (normalized): individual cells; for activity at 0.1 µM / activity at 0.3 µM / activity at 1 µM / activity at 3 µM / activity at 10 µM: Mus musculus, Pyramidal neuron, mean, read-out: GDPs current density, Mean (normalized); for block of GDPs in CA3 pyramidal neurons: in words
Source text: FIG. 2. Brain slice (hippocampus) with electrical stimulation and recording
FIG. 3. Normalized GDP current density in CA3 pyramidal neurons in presence of NKCC1 inhibitor
Panel A. Normalized GDP current density in CA3 pyramidal neurons according to the concentration of compound 57 in μM Panel B. Normalized GDP current density in CA3 pyramidal neurons according to the concentration of compound 51 in μM Panel C. Normalized GDP current density in CA3 pyramidal neurons according to the concentration of compound 57 and compound 51 in μM.
51 and 57 were tested to evaluate their basic neuronal intrinsic properties and excitability. Current-clamp whole-cell recordings were performed in CA3 pyramidal neurons in hippocampal slices from P14-15 mice with a bipolar stimulation electrode (FIG. 2).

CA1 pyramidal neurons = assay: Seizure-like events (SLE) triggered by tetanus stimulation of stratum radiatum in hippocampus, cell-attached recording; format: cell-based; conditions: for anticonvulsive activity / suppression of GABAAR-mediated depolarization during SLEs: 2 μM, in words
Description: FIG. 4. Cell-attached recording Tetanus in CA1 pyramidal neurons in presence of compound 51 (20 stimulus, 100 Hz, 4 consecutive traces superimposed), expressed in picoampere per second. The upper bars are representing the 100 Hz stimulation of stratum radiatum in control conditions, and the lower bars are representing 30 minutes after application of 2 μM of compound 51.
FIG. 5. Cell-attached recording Tetanus in CA1 pyramidal neurons in presence of compound 57 (20 stimulus, 100 Hz, 4 consecutive traces superimposed), expressed in picoampere per second. The upper bars are representing the 100 Hz stimulation of stratum radiatum in control conditions, and the lower bars are representing 30 minutes after application of 2 μM of compound 57.
FIG. 6. Post-tetanus frequency (normalized) in presence or not of 2 μM of compound 51 (withing 20 seconds window s after tetanus stimulation) (paired two-tailed t test: p=1*e^−4, n=5 cells). The error bars represent standard error of the mean.
FIG. 7. Post-tetanus frequency (normalized) in presence or not of 2 μM of compound 57 (withing 20 seconds window s after tetanus stimulation) (paired two-tailed t test: p=1*e^−4, n=5 cells). The error bars represent standard error of the mean.
Use of a NKCC1 inhibitor to block the activation of NKCC1 can reduce the [Cl^−]i, and thereby attenuate the excitatory GABAAR responses during epilepsy. Therefore, anticonvulsant effects of 51 on modulating the GABA polarity in acute seizure models was investigated. The seizure-like events in CA1 pyramidal neurons were triggered by tetanic stimulation of stratum radiatum in hippocampus by 51 (FIG. 4) and 57 (FIG. 5).

Row | Compound | GDPs current density (normalized) ([1]; 0.1 μM) | GDPs current density (normalized) ([1]; 0.3 μM) | GDPs current density (normalized) ([1]; 1 μM) | GDPs current density (normalized) ([1]; 3 μM) | GDPs current density (normalized) ([1]; 10 μM) | activity at 0.1 µM ([1]; 0.1 μM) [%] | activity at 0.3 µM ([1]; 0.3 μM) [%] | activity at 1 µM ([1]; 1 μM) [%] | activity at 3 µM ([1]; 3 μM) [%] | activity at 10 µM ([1]; 10 μM) [%] | block of GDPs in CA3 pyramidal neurons [1] | anticonvulsive activity (CA1 pyramidal neurons) | suppression of GABAAR-mediated depolarization during SLEs (CA1 pyramidal neurons) | activity at 2 µM (CA1 pyramidal neurons; Pyramidal neuron, 0.5 h, fraction of control, n=5, two-tailed paired t-test, p=5*e^−4, read-out: post-tetanus spike frequency, of control) [%]
1 | CCCCNc1cc(C(=O)O)cc(S(=N)(=O)NC)c1Oc1ccccc1 (stereo not drawn) [Compound 51, 3-(butylamino)-5-(methylaminosulfonimidoyl)-4-phenoxy-benzoic acid] | 0.6538 and 1.003 and 0.8458 and 0.6095 and 0.2984 | 0.2304 and 0.3999 and 0.22 and 0.9979 and 1.222 and 0.1863 | 0.2253 and 0.1713 and 0.1814 and 0.3747 and 0.3549 and 0.1282 and 0.4268 | 0.1082 and 0.484 and 0.1443 and 0.1442 and 0.08715 and 0 and 0.175 | 0.1092 and 0 (2×) and 0.04 (2×) and 0.05 | 68.2 | 54.3 | 26.6 | 16.3 | 3.99 | able to block GDPs | potent anticonvulsive activity | potently suppressed | 27 ± 7
2 | CCCCNc1cc(C(=O)O)cc(S(=N)(=O)Nc2ccccc2)c1Oc1ccccc1 (stereo not drawn) [Compound 57, 3-(anilinosulfonimidoyl)-5-(butylamino)-4-phenoxy-benzoic acid] | 1.067 and 0.6415 and 0.36 and 0.7716 and 1.279 and 0.8652 and 0.5079 and 0.901 | 0.3666 and 0.448 and 0.5922 and 0.1844 and 0.9957 and 0.5556 and 0.7164 | 0.5108 and 0.3317 and 0.1389 and 0.1288 and 0.09779 and 0.191 and 0.2683 and 0.352 | 0.06999 and 0.4997 and 0.2222 and 0.0431 and 0.2732 and 0.2642 and 0 | 0.06399 and 0.2068 and 0 (3×) | 79.9 | 55.1 | 25.2 | 19.6 | 5.42 | able to block GDPs | potent anticonvulsive activity | potently suppressed | –
